Experiments:
[1] = system: Human immunodeficiency virus 1; test: Inhibition of HIV1 protease at 50 nM
Plasmepsin II = Plasmepsin II (Plasmodium falciparum, UniProt P46925); test: Inhibition of Plasmodium falciparum plasmepsin-2
Plasmodium falciparum = test: Antimicrobial activity against Plasmodium falciparum in erythrocytes; format: functional, organism-based
[2] = Selectivity for Plasmodium falciparum plasmepsin-2 over human cathepsin D

Chain of Plasmepsin II (P46925 whole entry): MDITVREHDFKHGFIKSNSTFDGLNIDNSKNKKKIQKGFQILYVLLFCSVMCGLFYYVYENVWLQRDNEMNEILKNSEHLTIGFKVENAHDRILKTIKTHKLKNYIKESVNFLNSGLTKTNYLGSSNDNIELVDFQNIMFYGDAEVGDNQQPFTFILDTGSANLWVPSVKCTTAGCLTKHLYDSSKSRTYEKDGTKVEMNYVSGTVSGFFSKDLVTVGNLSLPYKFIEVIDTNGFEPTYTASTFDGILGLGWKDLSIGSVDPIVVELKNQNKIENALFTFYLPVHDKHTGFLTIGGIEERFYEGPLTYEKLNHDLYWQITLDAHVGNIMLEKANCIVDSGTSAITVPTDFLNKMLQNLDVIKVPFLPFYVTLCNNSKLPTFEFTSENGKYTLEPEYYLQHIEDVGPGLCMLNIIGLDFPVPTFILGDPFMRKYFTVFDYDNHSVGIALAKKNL

inhibition [1] [%]	Ki (Plasmepsin II) [nM]	EC50 (Plasmodium falciparum) [nM]	Ratio [2]	Structure (SMILES)
84	4	–	–	CSC[C@H](NC(=O)Cc1cccc(O)c1)C(=O)N[C@@H](Cc1ccccc1)[C@H](O)C(=O)N1CSC(C)(C)[C@H]1C(=O)N[C@H]1c2ccccc2C[C@H]1O
83	0.2	4700	–	CSC[C@H](NC(=O)Cc1ccccc1C)C(=O)N[C@@H](Cc1ccccc1)[C@H](O)C(=O)N1CSC(C)(C)[C@H]1C(=O)N[C@H]1c2ccccc2C[C@H]1O
88	5	–	–	CSC[C@H](NC(=O)Cc1ccc(C)cc1)C(=O)N[C@@H](Cc1ccccc1)[C@H](O)C(=O)N1CSC(C)(C)[C@H]1C(=O)N[C@H]1c2ccccc2C[C@H]1O
87	18	–	–	CSC[C@H](NC(=O)Cc1cccc(C)c1)C(=O)N[C@@H](Cc1ccccc1)[C@H](O)C(=O)N1CSC(C)(C)[C@H]1C(=O)N[C@H]1c2ccccc2C[C@H]1O
86	16	–	–	CSC[C@H](NC(=O)Cc1ccccc1O)C(=O)N[C@@H](Cc1ccccc1)[C@H](O)C(=O)N1CSC(C)(C)[C@H]1C(=O)N[C@H]1c2ccccc2C[C@H]1O
98	15	–	–	CSC[C@H](NC(=O)COc1cccc(Nc2ccccc2)c1)C(=O)N[C@@H](Cc1ccccc1)[C@H](O)C(=O)N1CSC(C)(C)[C@H]1C(=O)N[C@H]1c2ccccc2C[C@H]1O
86	4	–	–	CSC[C@H](NC(=O)Cc1ccccc1N)C(=O)N[C@@H](Cc1ccccc1)[C@H](O)C(=O)N1CSC(C)(C)[C@H]1C(=O)N[C@H]1c2ccccc2C[C@H]1O
68	≤ 0.1	–	–	CSC[C@H](NC(=O)Cc1ccc(N)cc1)C(=O)N[C@@H](Cc1ccccc1)[C@H](O)C(=O)N1CSC(C)(C)[C@H]1C(=O)N[C@H]1c2ccccc2C[C@H]1O
85	≤ 0.1	–	–	CSC[C@H](NC(=O)Cc1ccccc1)C(=O)N[C@@H](Cc1ccccc1)[C@H](O)C(=O)N1CSC(C)(C)[C@H]1C(=O)N[C@H]1c2ccccc2C[C@H]1O
88	17	–	–	COc1cccc(CC(=O)N[C@@H](CSC)C(=O)N[C@@H](Cc2ccccc2)[C@H](O)C(=O)N2CSC(C)(C)[C@H]2C(=O)N[C@H]2c3ccccc3C[C@H]2O)c1
–	0.5	6800	–	Cc1cccc(C)c1OCC(=O)N[C@@H](Cc1ccccc1)[C@H](O)C(=O)N1CSC(C)(C)[C@H]1C(=O)N[C@H]1c2ccccc2C[C@H]1O
–	1000	–	–	CSC[C@H](NC(=O)COc1cccc2cnccc12)C(=O)N[C@@H](Cc1ccccc1)[C@H](O)C(=O)N1CSC[C@H]1C(=O)NC(C)(C)C
99	9	–	–	CSC[C@H](NC(=O)c1cc(=O)c2ccccc2o1)C(=O)N[C@@H](Cc1ccccc1)[C@H](O)C(=O)N1CSC(C)(C)[C@H]1C(=O)N[C@H]1c2ccccc2C[C@H]1O
76	12	–	–	CSC[C@H](NC(=O)Cc1cccc(N)c1)C(=O)N[C@@H](Cc1ccccc1)[C@H](O)C(=O)N1CSC(C)(C)[C@H]1C(=O)N[C@H]1c2ccccc2C[C@H]1O
–	36	–	50	CSC[C@H](NC(=O)COc1cccc2cnccc12)C(=O)N[C@@H](Cc1ccccc1)[C@H](O)C(=O)N1CSC(C)(C)[C@H]1C(=O)NC(C)(C)C
56	5	–	–	CSC[C@H](NC(=O)OC1CCCCC1)C(=O)N[C@@H](Cc1ccccc1)[C@H](O)C(=O)N1CSC(C)(C)[C@H]1C(=O)N[C@H]1c2ccccc2C[C@H]1O
99	3	3100	–	CSC[C@H](NC(=O)COc1cccc2cnccc12)C(=O)N[C@@H](Cc1ccccc1)[C@H](O)C(=O)N1CSC(C)(C)[C@H]1C(=O)N[C@H]1c2ccccc2C[C@H]1O
88	≤ 0.1	–	–	CSC[C@H](NC(=O)Cc1ccc(O)cc1)C(=O)N[C@@H](Cc1ccccc1)[C@H](O)C(=O)N1CSC(C)(C)[C@H]1C(=O)N[C@H]1c2ccccc2C[C@H]1O
91	4	–	–	COc1ccc(CC(=O)N[C@@H](CSC)C(=O)N[C@@H](Cc2ccccc2)[C@H](O)C(=O)N2CSC(C)(C)[C@H]2C(=O)N[C@H]2c3ccccc3C[C@H]2O)cc1
81	9	–	–	COc1ccccc1CC(=O)N[C@@H](CSC)C(=O)N[C@@H](Cc1ccccc1)[C@H](O)C(=O)N1CSC(C)(C)[C@H]1C(=O)N[C@H]1c2ccccc2C[C@H]1O

Reference: ChEMBL document CHEMBL1144647, “Additional interaction of allophenylnorstatine-containing tripeptidomimetics with malarial aspartic protease plasmepsin II” (Bioorg Med Chem Lett, 2007)
